Laboratory results from patent US20110178052A1, “9-ALPHA ESTRATRIENE DERIVATIVES AS ER-BETA SELECTIVE LIGANDS FOR THE PREVENTION AND TREATMENT OF INTESTINAL CANCER” (Bayer Schering Pharma Aktiengesellschaft, priority 2008, published 2011).
“Also recorded” adds a separate entry of the source.

Columns and labels:
Assay type in all cases: in vivo, rat
cytokeratin 18 (M 30) = assay: Western Blot analysis of cytokeratin 18 cleavage (M30) in colon; details: OVX rats, BETA II at 5 μg
Experimental: (§1) Post pubertal animals were ovariectomized (OVX) at the age of three months and weighing 200-220 g. After 14 days of endogenous hormonal decline the animals were treated with the test compounds or vehicle for three weeks. The animals were randomly allocated to treatment and vehicle groups (n=6). E2 (4 μg kg-1 b.wt d-1), GEN (10 mg kg-1 b.wt d-1), ALPHA (10 μg kg-1 b.wt d-1), BETA 1 (100 μg kg-1 b.wt d-1), BETA II (5-15-50 μg kg-1 b.wt d-1) and ICI (3 mg kg-1 b.wt d-1) were dissolved in dimethylsulfoxide (DMSO) (200 μl/KG b. wt/d) and corn oil (800 μl/KG b. wt/d) for s.c. administration.
Ileal mucosa and rectal colon were dissected from the animals and immediately stored in liquid nitrogen. […] Protein concentrations were determined by the method of Lowry (Dc Protein Assay, Bio-Rad). Equal amounts of sample (40 μg protein) were loaded on a Protean II ready Gel (Bio-Rad).
After electrophoresis and separation, samples were transferred onto nitrocellulose membranes and blocked with 5% BSA in Phosphate (100 mM)-buffered saline solution (pH 7.4) at room temperature for 2 hours. The immobilized proteins were quantitatively detected using specific antibodies for actin and GAPDH (A5060 and G8795, Sigma-Aldrich, Steinheim, Germany), PCNA Clone PC 10 (Dako, Glostrup, Denmark), M30 Cytodeath (ALX-804-590, Alexis, San Diego, Calif., USA) and active caspase-3 (557035, BD Pharmingen, Heidelberg, Germany). […]

active caspase-3 = assay: Western Blot analysis of active caspase-3 in ileal mucosa; details: for activation of caspase-3: OVX rats, s.c., 3 weeks, E2 4 μg, GEN 10 mg, ALPHA 10 μg, BETA I 100 μg kg-1 b.wt d-1
Experimental: as §1
(§2) Ileal mucosa and rectal colon were dissected from the animals and immediately stored in liquid nitrogen. Pooled frozen tissue (n=6 animals per group) was powdered and homogenized in a buffer (623.5 nM Tris pH 8 EDTA) containing enzyme inhibitors (5 mg/ml aprotonin, 5 mg/ml leupeptin, 1 mg/ml pepstatin-A, 5 mg/ml antipain, 100 mM pefac in 0.5 M EDTA, pH 8). Protein concentrations were determined by the method of Lowry (Dc Protein Assay, Bio-Rad). Equal amounts of sample (40 μg protein) were loaded on a Protean II ready Gel (Bio-Rad).
(§3) After electrophoresis and separation, samples were transferred onto nitrocellulose membranes and blocked with 5% BSA in Phosphate (100 mM)-buffered saline solution (pH 7.4) at room temperature for 2 hours. The immobilized proteins were quantitatively detected using specific antibodies for actin and GAPDH (A5060 and G8795, Sigma-Aldrich, Steinheim, Germany), PCNA Clone PC 10 (Dako, Glostrup, Denmark), M30 Cytodeath (ALX-804-590, Alexis, San Diego, Calif., USA) and active caspase-3 (557035, BD Pharmingen, Heidelberg, Germany).
(§4) Polyclonal Swine Anti-Rabbit Immunglobulins/HRP and Polyclonal Rabbit Anti-Mouse Immunglobulins/HRP (P0217 and P0260, Dako, Glostrup, Denmark) were used as species-specific HRP-conjugated secondary antibodies.
(§5) Blot signals were visualized by the chemoluminescent POD-Substrate (Lumi-Light Plus, Roche Diagnostics, Mannheim, Germany) and a Fluorchem Luminescent Imager (Alpha Innotech, CA, USA).
(§6) The protein bands were quantified by densitometry using ImageJ 1.38. To account for in homogenous protein loading of the slots we calculated the ratio of […] (PCNA, M30, active caspase-3).

OVX rats = assay: Uterine wet weights of ovariectomized rats after 3 weeks of treatment; details: for uterine wet weights: s.c., 3 weeks, E2 4 μg, GEN 10 mg, ALPHA 10 μg, BETA I 100 μg kg-1 b.wt d-1, vs OVX
Experimental: as §1
(§7) Animals were sacrificed by decapitation after light anesthesia with CO2 inhalation. Uteri and intestinal tissues were prepared free of fat and were fixed in 4% formalin (for immunohistochemical analysis) and liquid nitrogen (for molecular biology). The uterine wet weights were determined.

PCNA [1] = assay: Immunohistochemical staining of PCNA in ileal mucosa cells; details: OVX rats, s.c., 3 weeks; E2 4 μg, GEN 10 mg, ALPHA 10 μg, BETA I 100 μg kg-1 b.wt d-1
Experimental: as §1, §7
(§8) Formalin-fixed intestinal samples were embedded in paraffin, sliced with a microtome (7 μm sections). After deparaffinization, antigen retrieval was performed in an incubator for 20 h at 60° C. in 0.01 M citrate buffer pH 6.0.
Subsequently, endogenous peroxidases were blocked for 20 min. with 3% hydrogen peroxide and the slides were covered with a 0,25% Triton X-100 solution for 10 min.
The primary antibody, PCNA Clone PC10 (Dako, Glostrup, Denmark) was applied at dilutions of 1:100, respectively.
After 1 h incubation with the primary antibodies, samples were incubated with the secondary antibody: Polyclonal Goat Anti-Mouse Immunglobulins/Biotinylated (Dako, Glostrup, Denmark).
Afterwards the sections were covered with Streptavidin-biotinylated Horseradish Peroxidase Complex (GE Healthcare, Little Chalfont Buckinghamshire, UK) at a dilution of 1:400. The samples were developed with DAB for 10 min. For negative controls, slides were immunostained in the absence of the primary antibody.
Quantitative analysis was performed in complete crypts of normal mucosa. Brown nuclear staining was indicative of a positive PCNA signal.

PCNA [2] = assay: Western Blot analysis of PCNA in ileal mucosa; details: for PCNA expression of intestinal mucosa cells, Western Blot densitometric evaluation: OVX rats, s.c., 3 weeks, E2 4 μg, GEN 10 mg, ALPHA 10 μg, BETA I 100 μg kg-1 b.wt d-1
Experimental: as §1, §2, §3, §4, §5, §6

PCNA mRNA = PCNA mRNA expression in the intestinal mucosa; details: OVX rats, FIG. 3B
Experimental: as §1

PCNA [3] = assay: Immunohistochemical staining of PCNA in colonic mucosa cells; details: OVX rats, immunohistochemistry of rectal colonic cross sections; BETA II at 5 μg/Kg
Experimental: as §1, §7, §8
Subsequently, endogenous peroxidases were blocked for 20 min. with 3% hydrogen peroxide and the slides were covered with a 0,25% Triton X-100 solution for 10 min. […]
Quantitative analysis was performed in complete crypts of normal mucosa. […]

intestinal mucosa = assay: Doses effect of BETA II on the intestinal mucosa
Experimental: as §1
BETA II was tested at 5, 15 and 50 μg kg-1 b.wt d-1.
Ileal mucosa and rectal colon were dissected from the animals and immediately stored in liquid nitrogen. […] Protein concentrations were determined by the method of Lowry (Dc Protein Assay, Bio-Rad). Equal amounts of sample (40 μg protein) were loaded on a Protean II ready Gel (Bio-Rad). […]
as §6

[4] = BETA I and BETA II at the same concentration (5 μg), pooled ileal tissue, FIG. 6
[5] = OVX rats co-treated with BETA I 100 μg and ICI 3 mg kg-1 b.wt d-1

C[C@]12CC[C@@H]3c4ccc(O)cc4CC[C@H]3[C@@H]1CC[C@@H]2O [E2, 17β-estradiol]
cleavage of cytokeratin 18 (M 30) in colonic mucosa cells (cytokeratin 18 (M 30)): only marginally increased
activation of caspase-3 (active caspase-3; pooled ileal tissue): remained on a low level
uterine wet weights (OVX rats): strong stimulation
PCNA protein expression, immunostaining of ileal cross sections (PCNA [1]): slightly induced
PCNA expression of intestinal mucosa cells, Western Blot densitometric evaluation (PCNA [2]; pooled ileal tissue): not affected

O=c1c(-c2ccc(O)cc2)coc2cc(O)cc(O)c12 [GEN, 4′,5,7-trihydroxyisoflavone]
PCNA mRNA Expression in the intestinal Mucosa (PCNA mRNA): diminished
PCNA expression in colonic mucosa cells (PCNA [3]): reduced
activation of caspase-3 (active caspase-3; pooled ileal tissue): moderately
uterine wet weights (OVX rats): faint, although significant increase
PCNA protein expression, immunostaining of ileal cross sections (PCNA [1]): significantly reduced
PCNA expression of intestinal mucosa cells, Western Blot densitometric evaluation (PCNA [2]; pooled ileal tissue): reduced

C=C[C@@]12CCc3cc(O)ccc3[C@H]1CC[C@@]1(C)[C@H]2CC[C@@H]1O [BETA I, 8β-vinyl-estra-1,3,5(10)-triene-3,17β-diol]
PCNA mRNA Expression in the intestinal Mucosa (PCNA mRNA): diminished
activation of caspase-3 (active caspase-3; pooled ileal tissue): dramatically promoted
uterine wet weights (OVX rats): no significant uterus stimulation
PCNA protein expression, immunostaining of ileal cross sections (PCNA [1]): significantly reduced
PCNA expression of intestinal mucosa cells, Western Blot densitometric evaluation (PCNA [2]; pooled ileal tissue): reduced

C=C[C@]12CC[C@]3(C)[C@@H](F)[C@H](O)C[C@H]3[C@@H]1CCc1cc(O)ccc12 [BETA II, 17β-Fluoro-9α-vinyl-estra-1,3,5(10)-triene-3,16α-diol]
PCNA expression in colonic mucosa cells (PCNA [3]): reduced
cleavage of cytokeratin 18 (M 30) in colonic mucosa cells (cytokeratin 18 (M 30)): dramatically induced; also recorded: significant stimulation
activity relative to BETA I on effects regulating the intestinal homeostasis (intestinal mucosa; BETA II at 5 μg/kg vs BETA I): about 20 times
doses effect in the intestinal mucosa (intestinal mucosa; OVX rats, BETA II tested at 5, 15 and 50 μg kg-1 b.wt d-1): strongest effect at lowest tested dose of 5 μg/kg
activation of the caspase-3 compared with BETA I (active caspase-3; [4]): at a higher level
effect on the uterus weight (OVX rats; BETA II at 5 μg/kg): does not show any measurable effect
down regulation of the expression of the proliferation marker PCNA compared with BETA I (PCNA [2]; [4]): improved effect

C[C@]12CC[C@@H]3c4ccc(O)cc4CC[C@H]3[C@@H]1C[C@H]1OC(=O)C[C@]12O [ALPHA, 3,17-dihydroxy-19-nor-17α-pregna-1,3,5(10)-triene-21,16α-lactone]
activation of caspase-3 (active caspase-3; pooled ileal tissue): moderately
uterine wet weights (OVX rats): strongly increased
PCNA protein expression, immunostaining of ileal cross sections (PCNA [1]): slightly induced
PCNA expression of intestinal mucosa cells, Western Blot densitometric evaluation (PCNA [2]; pooled ileal tissue): elevation

C[C@]12CC[C@@H]3c4ccc(O)cc4C[C@@H](CCCCCCCCC[S+]([O-])CCCC(F)(F)C(F)(F)F)[C@H]3[C@@H]1CC[C@@H]2O (some centres unmarked) [ICI]
effect of co-administration of ICI on pro-apoptotic effect (active caspase-3) of BETA I (active caspase-3; [5]): antogonization
effect of co-administration of ICI on anti-proliferative effect (PCNA) of BETA I (PCNA [2]; [5]): antogonization
